# “Also recorded” adds a separate entry of the source.
# Assays:
# [1] = system: root cells of etiolated seedlings; experiment: Root cell size by confocal microscopy (PI staining); assay type: in vivo, Arabidopsis thaliana; conditions: 4-day-old etiolated seedlings, 2.5 μM MBZ or 10 μM ACC
# Excerpt: (§1) LaserMicroscopy. A Zeiss 710 confocal microscope with 20×, 40×, and 63× objectives were used to detect GFP and propidium iodide (PI) fluorescence. A Keyence BZ-X810 microscope with a 20× objective was used to detect bright field images and GFP fluorescence in FIG. 3B, FIG. 8B right panel, FIG. 9C, FIG. 9F.
# [2] = system: Ethylene Response Factor1 (ERF1); experiment: Expression of ethylene response marker gene ERF1; assay type: in vivo, Arabidopsis thaliana; conditions: root tissue, 2 hours, 10 μM MBZ or ACC (50 μM per legend)
# hsMAPK14 = hsMAPK14 (Homo sapiens, UniProt Q16539); conditions: mammalian systems, Ariey-Bonnet et al., 2020; cited from earlier work
# Sequence of hsMAPK14 (Q16539 whole entry): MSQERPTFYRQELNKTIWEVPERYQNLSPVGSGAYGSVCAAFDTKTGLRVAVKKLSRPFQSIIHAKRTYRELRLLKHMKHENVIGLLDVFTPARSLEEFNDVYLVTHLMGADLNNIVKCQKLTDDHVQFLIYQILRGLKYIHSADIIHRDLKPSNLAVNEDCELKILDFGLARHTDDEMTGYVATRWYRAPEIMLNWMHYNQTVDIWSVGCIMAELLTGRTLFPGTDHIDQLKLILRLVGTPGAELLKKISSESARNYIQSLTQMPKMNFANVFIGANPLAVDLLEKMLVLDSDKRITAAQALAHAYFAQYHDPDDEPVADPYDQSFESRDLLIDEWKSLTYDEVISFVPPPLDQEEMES
# Arabidopsis roots = experiment: mRNA-seq of roots, differential expression and GO analysis; assay type: in vivo, Arabidopsis thaliana
# Protocol: mRNA-seq analysis. 14 d old seedlings on DMSO plates were transferred to 12 MS liquid plates with DMSO or 10 μM mebedazole treatment for 4 h, root tissues were collected for RNA extraction and RNA-seq.
# Read alignment and generation of counts. The TAIR10 genome file and annotation file were obtained from the Arabidopsis Information resource web site (arabidopsis.org). The An aligner, called the Splice Transcripts Alignments to Reference (STAR) version 2.7.0a^44, was used to align short reads in the FASTQ files. In order to use STAR, a STAR index was built using the following parameters:
# Then, short reads in the FASTQ files were aligned and gene counts were obtained using the following STAR command:
# A custom R script was used to combine counts per gene from count data produced from STAR cross all samples.
# Differential expression analysis. Differential expression of genes between treatments and control was determined using the R package, edgeR (version 3.36.0) (Robinson et al., 2010). The CPM (counts per million) function from edgeR was used to normalize the counts and differentially expressed genes (DEGs) were identified using glmLRT function from edgeR.
# Analysis of published Ethylene RNA-Seq. The fastq-dump utility from the Short Read Archive (SRA) Toolkit (v2.6.3) (github.com/ncbi/sra-tools) was used to download transcriptome libraries (SRA accession IDs: SRR648276, SRR648275, SRR648274, SRR648300, SRR648299, and SRR648298) from SRA database (ncbi.nlm.nih.gov/sra) (Leinonen et al., 2011). The color space sequencing data were converted to base-space sequencing data using Perl script ‘csfq2fq.pl’ (gist.github.com/pcantalupo/9c30709fe802c96ea2b3). The converted FASTQ files were aligned and analyzed using above methods.
# Statistical analysis. A two-sided Student's t-test was used for comparisons of two conditions. The comparison of meristem length, mature cell length, root length, GSA between multiple treatments or genotypes was performed by One-way ANOVA and post hoc Tukey testing. Detailed information was prepared in figure legends. Statistical significance of overlap between DEGs from MBZ treatment and ethylene treatment was assessed by hypergeometric distribution test. Hypergeometric test function in R was used to calculate statistical significance: • $ phyper(q−1, m, n-m, k, lower.tail=FALSE, log.p=FALSE) • q=the number of genes in common between two sets • m=the number of genes in Set 1; • n=the total number of genes in RNA-Seq counts table (33,602) • k=the number of genes in Set 2
# [3] = system: etiolated Arabidopsis seedlings; experiment: Triple response of etiolated seedlings; assay type: in vivo, Arabidopsis thaliana
# EIN3 = experiment: 35S-EIN3-GFP protein level in ein3eil1 background; assay type: in vivo, Arabidopsis thaliana; conditions: 2 hours, 10 μM MBZ or 50 μM ACC
# Excerpt: as §1
# [4] = system: IAA1, IAA29, GH3.2, GH3.3, and MAKR4; experiment: Expression of marker genes of auxin signaling; assay type: in vivo, Arabidopsis thaliana; conditions: 10 μM MBZ, 2 h
compound,measurement,setting,value
"COC(=O)Nc1nc2ccc(C(=O)c3ccccc3)cc2[nH]1 [MBZ, Mebendazole]",mature cell size,[1],reduced
same,transcript level of ERF,[2],strongly induced
same,activity on hsMAPK14,hsMAPK14,inhibitor
same,GO enrichment of ethylene-activated signaling pathway (GO:0009873),"Arabidopsis roots; 10 μM MBZ, 4 hours",10.83 fold enrichment
same,GO enrichment of negative regulation of ethylene-activated signaling pathway (GO:0010105),"Arabidopsis roots; 10 μM MBZ, 4 hours",21.03 fold enrichment
same,number of differentially expressed genes (DEGs),Arabidopsis roots; 4 hours of MBZ treatment,1335 genes
same,DEGs overlapping with DEGs of 4 hours ethylene treatment,Arabidopsis roots; 4 hours of MBZ treatment vs published ethylene data,306 genes
same,common DEGs retaining directionality of expression change,"Arabidopsis roots; MBZ vs ethylene, 4 h",More than 90%
same,triple response phenotype,"[3]; 3-day-old etiolated seedlings, 10 μM MBZ",significant triple response phenotype
same,triple response in etr1-3,"[3]; 4-days-old etiolated etr1-3 seedlings, 2.5 μM MBZ or 10 μM ACC",showed the typical triple response phenotype
same,triple response in ethylene insensitive mutants ein2-5 and ein3eil1,"[3]; MBZ (2.5 μM), etiolated seedlings",abolished; also recorded: didn't show a triple response
same,concentration sufficient to induce the triple response phenotype,[3]; dark environment,2.5 µM
same,35S-EIN3-GFP protein level,EIN3,dramatically induced
same,expression of marker genes of auxin signaling,[4],did not show any significant change

# From patent US20250049032A1, “ETHYLENE SIGNALING ACTIVATOR MODULATES ROOT SYSTEM ARCHITECTURE” (Salk Institute for Biological Studies, priority 2021, published 2025)
